In patent publication US7521596B2, “Method for controlling weeds” (Sumitomo Chemical Company, Limited, priority 2004, dated 2009):

Tests used:
[1] = test system: recombinant soybean line J18 (cytochrome P450 of SEQ ID NO: 1 introduced); test: Spray test of the present herbicidal compound, recombinant soybean line J18; assay type: in vivo; conditions: for average phytotoxicity score (sensitivity to carfentrazone-ethyl): J18 (T2 generation), sprayed 21st day after seeding, scored 2 weeks after spraying, score 0 (died) to 3
Experimental: (§1) Seeds of these lines were seeded and grown in growing pots containing horicultural soil (Kureha Engei Baido manufactured by Kureha Chemical Industry Co. Ltd.) When trifoliate leaves were developed after germination, the seedlings were transplanted to growing pots containing the soil prepared by mixing equal amount of the Kureha Engei Baido and field soil, and then grown in a greenhouse according to the method of Example 17 of WO0304370 to obtain seeds of T2 generation of each line. Among the obtained T2 generations, seeds of T2 generation of the line J18 (seeds of the recombinant soybean) were seeded in growing pots containing horicultural sail (Kureha Engei Baido manufactured by Kureha Chemical Industry Co., Ltd.) and grown. According to the above method described in Example 5, it was sprayed carfentrazone-ethyl to the seedling on the 21st day after seeding, and compared the sensitivity to carfentrazone-ethyl of the recombinant soybean with the sensitivity to carfentrazone-ethyl of wild-type soybean line (cv. Jack) at 2 weeks after spraying. The spray liquid of the above herbicidal compound was prepared as follows.
(§2) The spray liquid was prepared by diluting dry flowable preparation of carfentrazone-ethyl (AIM™ HERBICIDE manufactured by FMC, containing 40% (w/w) of carfentrazone-ethyl) with Agri dex (manufactured by Valent) 1% aqueous solution to be contained 1.79 mg, 3.57 mg or 7.14 mg of carfentrazone-ethyl in the spray liquid.
(§3) The sensitivity of the recombinant soybean to carfentrazone-ethyl was decided by scoring it based on the index below, and calculating the average of the scores with respect to each recombinant soybean line and applied amount for it. The same spray test of the wild-type soybean line (cv. Jack) was carried out as a negative control.
(§4) <Scoring Index Based on the Degree of Phytotoxicity as Dying of the Individual and Browning or Whitening of the Leaves or Stems Caused by Compound Spraying>

[2] = test system: wild-type soybean line (cv. Jack); test: Spray test of the present herbicidal compound, wild-type soybean (negative control); assay type: in vivo; conditions: sprayed 21st day after seeding, scored 2 weeks after spraying, score 0 (died) to 3
Experimental: as §1, §2, §3, §4

[3] = test system: recombinant tobacco line 1609soy#25 (cytochrome P450 of SEQ ID NO: 1 introduced); test: Spray test of the present herbicidal compound, recombinant tobacco line 1609soy#25; assay type: in vivo, Nicotinia tabacum; conditions: score 0 (died) to 3; for average phytotoxicity score (sensitivity to carfentrazone-ethyl): applied as AIM HERBICIDE dry flowable; for average phytotoxicity score (sensitivity to flufenpyr-ethyl): about 2 weeks after spraying, average of 4 individuals
Experimental: (§5) Seeds of the homozygote lines selected in Example 4 (seeds of lines #17 and #25 of the recombinant tobacco to which plasmid pBI-NdG6-rSt-1609soy has been introduced, and seeds of the line 1584soy#16 of the recombinant tobacco to which plasmid pBI-NdG6-rSt-1584soy has been introduced) were aseptically seeded on MS agar medium containing 100 mg/L kanamycin. Also, seeds of the wild-type tobacco line SR-1 were aseptically seeded on MS agar medium. After about 2 weeks, germinated seedlings were observed.
(§6) Germinated individuals were transplanted to growing pots containing horicultural soil (Kureha Engei Baido manufactured by Kureha Chemical Industry Co., Ltd.), acclimated to the external environment in a growth chamber, then grown for about 2 weeks at 23° C., 23 hours of day length in a growth chamber. Thus obtained plants were applied to the spray test of the present herbicidal compound, flufenpyr-ethyl.
(§7) Flufenpyr-ethyl was dissolved in Solvesso cocktail mixed Solvesso 200 (manufactured by Valent) and Sorpol 3816 (manufactured Sumitomo Chemical Co., Ltd.) at the ratio of 87.5:10 such that flufenpyr-ethyl was respectively contained 0.89 mg or 1.78 mg in 0.5 mL Solvesso cocktail. The spray liquid of flufenpyr-ethyl was prepared as the aqueous solution containing the Solvesso cocktail of 2.5% concentration in which the compound was dissolved and Agri dex of 1% concentration (manufactured by Valent) as adjuvant.
(§8) Spray of the spray liquid to the plant above described was carried out, by using running automatic spray machine (manufactured by Nambasekkei), such that spray liquid 20 mL was sprayed to the recombinant tobacco seedlings put at 0.9 square meter of the sprayed area in a uniform way. After about 2 weeks, the sensitivity of the applied recombinant tobacco line to flufenpyr-ethyl was compared to the sensitivity of the wild-type tobacco line SR-1 to flufenpyr-ethyl. In the above spray test, 4 individuals of the recombinant tobacco were used with respect to each applied amount of flufenpyr-ethyl. The sensitivity of the recombinant tobacco to flufenpyr-ethyl was decided by scoring it based on the index below, and calculating the average of the score of 4 individuals with respect to each recombinant tobacco line and applied amount for it. The same spray test of wild-type line SR-1 was carried out as a negative control.
as §4
(§9) As to the homozygote line 1609soy#25 selected in Example 4 from among the recombinant tobacco lines to which a DNA having a nucleotide sequence encoding the amino acid sequence of SEQ ID NO: 1 has been introduced, and the wild-type tobacco line SR-1, their sensitivities to the compound (I), carfentrazone-ethyl and sulfentrazone were investigated according to the method described in Example 5 (evaluation by scoring index based on the degree of phytotoxicity as dying of the individual and browning or whitening of the leaves or stems caused by compound spraying). […]

[4] = test system: wild-type tobacco line SR-1; test: Spray test of the present herbicidal compound, wild-type tobacco (negative control); assay type: in vivo, Nicotinia tabacum; conditions: wild type SR-1, score 0 (died) to 3; for average phytotoxicity score (sensitivity to carfentrazone-ethyl): applied as AIM HERBICIDE dry flowable; for average phytotoxicity score (sensitivity to flufenpyr-ethyl): about 2 weeks after spraying, average of 4 individuals
Experimental: as §5, §6, §7, §8, §4, §9

[5] = test system: recombinant tobacco line 1584soy#16 (cytochrome P450 of SEQ ID NO: 2 introduced); test: Spray test of the present herbicidal compound, recombinant tobacco line 1584soy#16; assay type: in vivo, Nicotinia tabacum; conditions: about 2 weeks after spraying, average of 4 individuals, score 0 (died) to 3
Experimental: as §5, §6
(§10) Flufenpyr-ethyl was dissolved in Solvesso cocktail mixed Solvesso 200 (manufactured by Valent) and Sorpol 3816 (manufactured Sumitomo Chemical Co., Ltd.) at the ratio of 87.5:10 such that flufenpyr-ethyl was respectively contained 0.89 mg or 1.78 mg in 0.5 mL Solvesso cocktail. […]

[6] = test system: recombinant tobacco line 1609soy#17 (cytochrome P450 of SEQ ID NO: 1 introduced); test: Spray test of the present herbicidal compound, recombinant tobacco line 1609soy#17; assay type: in vivo, Nicotinia tabacum; conditions: about 2 weeks after spraying, average of 4 individuals, score 0 (died) to 3
Experimental: as §5, §6, §10

SMILES: CCOC(=O)C(Cl)Cc1cc(-n2nc(C)n(C(F)F)c2=O)c(F)cc1Cl (stereo not drawn) [carfentrazone-ethyl]
- average phytotoxicity score (sensitivity to carfentrazone-ethyl) ([1]; 1.79 mg/20 mL spray liquid): 1.8
- average phytotoxicity score (sensitivity to carfentrazone-ethyl) ([1]; 3.57 mg/20 mL spray liquid): 1.4
- average phytotoxicity score (sensitivity to carfentrazone-ethyl) ([1]; 7.14 mg/20 mL spray liquid): 0.9
- phytotoxicity / resistance as compared to the wild-type plant cv. Jack ([1]; line J18, 1.79, 3.57 or 7.14 mg in the spray liquid): the phytotoxicity was reduced and remarkable improvement of the resistance was recognized
- average phytotoxicity score (sensitivity to carfentrazone-ethyl) ([2]; 1.79 mg/20 mL spray liquid): 1.0
- average phytotoxicity score (sensitivity to carfentrazone-ethyl) ([2]; 3.57 mg/20 mL spray liquid): 0.9
- average phytotoxicity score (sensitivity to carfentrazone-ethyl) ([2]; 7.14 mg/20 mL spray liquid): 0.3
- average phytotoxicity score (sensitivity to carfentrazone-ethyl) ([3]; 0.446 mg/20 mL spray liquid): 2.5
- average phytotoxicity score (sensitivity to carfentrazone-ethyl) ([3]; 0.893 mg/20 mL spray liquid): 1.8
- average phytotoxicity score (sensitivity to carfentrazone-ethyl) ([3]; 4.46 mg/20 mL spray liquid): 1.5
- average phytotoxicity score (sensitivity to carfentrazone-ethyl) ([4]; 0.446 mg/20 mL spray liquid): 1.0
- average phytotoxicity score (sensitivity to carfentrazone-ethyl) ([4]; 0.893 mg/20 mL spray liquid): 0.0
- average phytotoxicity score (sensitivity to carfentrazone-ethyl) ([4]; 4.46 mg/20 mL spray liquid): 0.0

SMILES: CCOC(=O)COc1cc(-n2ncc(C(F)(F)F)c(C)c2=O)c(F)cc1Cl [flufenpyr-ethyl]
- average phytotoxicity score (sensitivity to flufenpyr-ethyl) ([5]; 0.89 mg/20 mL spray liquid): 3.0
- average phytotoxicity score (sensitivity to flufenpyr-ethyl) ([5]; 1.78 mg/20 mL spray liquid): 3.0
- average phytotoxicity score (sensitivity to flufenpyr-ethyl) ([3]; 0.89 mg/20 mL spray liquid): 3.0
- average phytotoxicity score (sensitivity to flufenpyr-ethyl) ([3]; 1.78 mg/20 mL spray liquid): 3.0
- average phytotoxicity score (sensitivity to flufenpyr-ethyl) ([6]; 0.89 mg/20 mL spray liquid): 3.0
- average phytotoxicity score (sensitivity to flufenpyr-ethyl) ([6]; 1.78 mg/20 mL spray liquid): 3.0
- average phytotoxicity score (sensitivity to flufenpyr-ethyl) ([4]; 0.89 mg/20 mL spray liquid): 1.7
- average phytotoxicity score (sensitivity to flufenpyr-ethyl) ([4]; 1.78 mg/20 mL spray liquid): 0.0
